Data from patent US20120165403A1, “METHODS OF INHIBITING THE ACTIVITY OF HSP90 AND/OR ARYL HYDROCARBON RECEPTOR” (UNIVERSITY OF ROCHESTER, priority 2004, published 2012).

What was measured:
hsp90 = assay: Affinity chromatography on EGCG-conjugated Sepharose, Hepa cytosol hsp90; type: binding, mouse
AhR [1] = type: biochemical, mouse
Description: Hepa cytosol (2.5 mg protein/ml) was incubated with a range of concentrations of EGCG (1-200 μM) or EGCG in the presence of 3 nM TCDD for 2 h at room temperature. Treated cytosols (21-25 μg) were mixed with nonspecific DNA (herring sperm), 0.08M NaCl, and 25,000-45,000 cpm of [^32P]-endlabeled oligonucleotide containing a single consensus DRE (Gasiewicz et al., Biochem. Pharmacol. 52:1787-1803 (1996), which is hereby incorporated by reference in its entirety). Samples were subjected to nondenaturing electrophoresis (4% acrylamide) and visualized using a Phosphoimager.

AhR [2] = assay: AhR protein levels by western blotting in Hepa cells; type: cell-based, mouse; conditions: over 12 hours
Description: Hepa cells were plated onto 6-well plates at a density of 5×10^5 cells/well and incubated overnight at 37° C. […] Cells were lysed (0.2% Triton, 5 mM EDTA in PBS) and total protein quantified using the Coomassie Plus Protein Assay Reagent (Pierce, Rockford, Ill.). Protein (30 μg) was separated by SDS-PAGE (7.5% acrylamide resolving gel) and transferred to PVDF membrane (Millipore, Bedford, Mass.). Membranes were probed with antibodies recognizing CYP1A1 (Xenotech, Lenexa, Kans.), AhR (Biomol, Plymouth Meeting, Pa.) and actin (Sigma). The secondary IgG antibodies were coupled to horseradish peroxidase (Jackson Immuno Research, West Grove, Pa.). Both primary and secondary antibodies were used at a dilution of 1:5000 in TBST (50 mM Tris, 300 mM NaCl, 0.5% Tween 20, pH 7.5) containing 5% milk. Proteins were visualized by chemiluminescence (KPL, Gaithersburg, Md.).

AhR/Arnt complex = target: T1, AhR/Arnt complex (Mus musculus, UniProt P30561); assay: AhR/Arnt complex formation by immunoprecipitation in RRL; type: biochemical, murine; conditions: 200 μm EGCG, with or without 1 nM TCDD, anti-AhR immunoprecipitation
T1 construct: made in house; host or cells: TNT rabbit reticulocyte lysate
T1 sequence (P30561 10-805 limits assumed): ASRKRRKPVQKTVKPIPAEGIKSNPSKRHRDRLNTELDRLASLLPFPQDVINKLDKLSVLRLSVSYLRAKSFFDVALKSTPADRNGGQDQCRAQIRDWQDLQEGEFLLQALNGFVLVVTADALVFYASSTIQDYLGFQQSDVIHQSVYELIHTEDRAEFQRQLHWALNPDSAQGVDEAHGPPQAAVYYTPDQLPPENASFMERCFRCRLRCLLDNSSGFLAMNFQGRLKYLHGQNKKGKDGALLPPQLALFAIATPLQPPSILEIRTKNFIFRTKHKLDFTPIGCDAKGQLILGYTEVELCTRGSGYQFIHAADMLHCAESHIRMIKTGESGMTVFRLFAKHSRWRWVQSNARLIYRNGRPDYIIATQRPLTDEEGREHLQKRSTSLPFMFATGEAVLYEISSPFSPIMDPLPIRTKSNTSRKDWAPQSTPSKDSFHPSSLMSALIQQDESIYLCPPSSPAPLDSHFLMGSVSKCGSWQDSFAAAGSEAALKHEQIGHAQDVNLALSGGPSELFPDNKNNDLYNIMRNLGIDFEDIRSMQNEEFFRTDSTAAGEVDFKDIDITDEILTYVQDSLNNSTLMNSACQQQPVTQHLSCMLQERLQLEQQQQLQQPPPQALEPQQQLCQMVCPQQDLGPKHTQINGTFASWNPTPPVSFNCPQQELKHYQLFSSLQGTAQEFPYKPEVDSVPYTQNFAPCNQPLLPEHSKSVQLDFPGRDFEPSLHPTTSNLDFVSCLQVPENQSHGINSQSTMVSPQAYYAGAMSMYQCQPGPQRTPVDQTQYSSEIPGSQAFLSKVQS
Source text: Murine AhR and ARNT cDNA (obtained from J. Whitlock and O. Hankinson, respectively) were inserted into pcDNA3 (Invitrogen, Carlsbad, Calif.). Chicken hsp90 constructs (FIG. 5), c90711hsp (wild-type), c90G94D (wild-type point mutant gly94→Asp (Grenert et al., J. Biol. Chem. 272:23843-23850 (1997), which is hereby incorporated by reference in its entirety), c90D92A (wild-type point mutant Asp92→Ala (Sullivan et al., J. Biol. Chem. 268:20373-20379 (1993), which is hereby incorporated by reference in its entirety), c90N221 (wild-type truncation mutant encoding a.a. 221-728 (Sullivan et al., J. Biol. Chem. 268:20373-20379 (1993), which is hereby incorporated by reference in its entirety)), c90N303 (a.a. 303-728) and c90N538 (a.a. 538-728) were kind gifts from Dr. D. Toft (Rochester, Minn.). The C-terminal truncation mutant c900507 (a.a. 1-221) was obtained from Dr. L. Neckers (Rockville, Md.) (Grenert et al., J. Biol. Chem. 272:23843-23850 (1997); Marcu et al., J. Biol. Chem. 275:37181-37186 (2000), which are hereby incorporated by reference in their entirety). Human p23 cDNA was excised from pQE80-p23 (obtained from W. Chan Stockton, Calif.) by sequential digests using the restriction enzymes Sad (3′-end) and BamHI (5′-end) and inserted into the similarly digested pET28a (Novagen, Madison, Wis.). […]

Q: For `O=C(O[C@@H]1Cc2c(O)cc(O)cc2O[C@@H]1c1cc(O)c(O)c(O)c1)c1cc(O)c(O)c(O)c1` [EGCG, epigallocatechin gallate], which “binding of hsp90 to EGCG-Sepharose” value (hsp90) is on record?
A: The value was “also eluted from EGCG-Sepharose”.

Q: And the “DRE binding, treatment alone” value (AhR [1]; Hepa cytosol and extracts from treated whole cells, EGCG alone)?
A: The value was “DRE binding was not observed”.

Q: What about the “inhibition of TCDD-induced AhR-DRE binding” value (AhR [1]; Hepa cytosol, 100 μM EGCG, 3 nM TCDD, 2 h) of the same compound?
A: The value was about 100%.

Q: And the “effect on the TCDD-AhR-DRE shifted band” value (AhR [1]; Hepa cytosol, EGCG 1-200 μM, 3 nM TCDD)?
A: The value was “concentration dependent decrease”.

Q: And the “effect on the TCDD-induced decrease of AhR levels” value (AhR [2]; 200 μM EGCG with 150 pM TCDD)?
A: Its value is “not exacerbated or prevented”.

Q: And the “AhR protein levels, treatment alone” value (AhR [2]; EGCG 200 μM or TCDD 150 pM)?
A: The value was “not capable of inducing AhR degradation”.

Q: What about the “effect on AhR/Arnt complex formation” value (AhR/Arnt complex) of the same compound?
A: Its value is “disrupting AhR/Arnt complex formation”.
